The NIST ThermoML archive (doi:10.1016/j.jct.2006.11.003)

Experiment: xn = mol fraction of the nth substance listed
Conditions: 101 kPa, Liquid

Cc1cccc(C)c1 [1,3-dimethylbenzene] + CN1CCCC1=O
Conditions | mass density [kg/m3]
293.15 K, x1 = 0.0451 | 1024.18
293.15 K, x1 = 0.1145 | 1011.33
293.15 K, x1 = 0.1874 | 998.07
293.15 K, x1 = 0.2451 | 987.76
293.15 K, x1 = 0.3258 | 973.58
293.15 K, x1 = 0.3987 | 961
293.15 K, x1 = 0.4657 | 949.63
293.15 K, x1 = 0.5214 | 940.31
293.15 K, x1 = 0.5985 | 927.59
293.15 K, x1 = 0.6584 | 917.85
293.15 K, x1 = 0.7214 | 907.73
293.15 K, x1 = 0.7987 | 895.48
293.15 K, x1 = 0.8547 | 886.71
293.15 K, x1 = 0.9048 | 878.92
293.15 K, x1 = 0.9597 | 870.47
293.15 K, x1 = 1 | 864.31
303.15 K, x1 = 0.0541 | 1013.3
303.15 K, x1 = 0.1134 | 1002.37
303.15 K, x1 = 0.1954 | 987.52
303.15 K, x1 = 0.2562 | 976.72
303.15 K, x1 = 0.3214 | 965.31
303.15 K, x1 = 0.3895 | 953.58
303.15 K, x1 = 0.4487 | 943.53
303.15 K, x1 = 0.5014 | 934.7
303.15 K, x1 = 0.5782 | 922.02
303.15 K, x1 = 0.6484 | 910.6
303.15 K, x1 = 0.7154 | 899.86
303.15 K, x1 = 0.7654 | 891.93
303.15 K, x1 = 0.8241 | 882.72
303.15 K, x1 = 0.8815 | 873.79
303.15 K, x1 = 0.9465 | 863.8
303.15 K, x1 = 1 | 855.64
313.15 K, x1 = 0.0487 | 1005.18
313.15 K, x1 = 0.1151 | 992.96
313.15 K, x1 = 0.1745 | 982.21
313.15 K, x1 = 0.2495 | 968.86
313.15 K, x1 = 0.3147 | 957.46
313.15 K, x1 = 0.3851 | 945.34
313.15 K, x1 = 0.4587 | 932.89
313.15 K, x1 = 0.5185 | 922.93
313.15 K, x1 = 0.6214 | 906.08
313.15 K, x1 = 0.6785 | 896.89
313.15 K, x1 = 0.7484 | 885.77
313.15 K, x1 = 0.7945 | 878.53
313.15 K, x1 = 0.8521 | 869.55
313.15 K, x1 = 0.9021 | 861.83
313.15 K, x1 = 0.9548 | 853.77
313.15 K, x1 = 1 | 846.9
323.15 K, x1 = 0.0548 | 995.37
323.15 K, x1 = 0.1154 | 984.22
323.15 K, x1 = 0.1754 | 973.34
323.15 K, x1 = 0.2354 | 962.63
323.15 K, x1 = 0.2965 | 951.89
323.15 K, x1 = 0.3551 | 941.73
323.15 K, x1 = 0.4158 | 931.36
323.15 K, x1 = 0.4814 | 920.31
323.15 K, x1 = 0.5385 | 910.84
323.15 K, x1 = 0.5821 | 903.68
323.15 K, x1 = 0.6514 | 892.44
323.15 K, x1 = 0.7085 | 883.3
323.15 K, x1 = 0.7765 | 872.54
323.15 K, x1 = 0.8512 | 860.88
323.15 K, x1 = 0.9374 | 847.61
323.15 K, x1 = 1 | 838.09
333.15 K, x1 = 0.0451 | 987.86
333.15 K, x1 = 0.1102 | 975.88
333.15 K, x1 = 0.1985 | 959.95
333.15 K, x1 = 0.2511 | 950.64
333.15 K, x1 = 0.3201 | 938.59
333.15 K, x1 = 0.3952 | 925.71
333.15 K, x1 = 0.4625 | 914.36
333.15 K, x1 = 0.5214 | 904.57
333.15 K, x1 = 0.5985 | 891.95
333.15 K, x1 = 0.6584 | 882.28
333.15 K, x1 = 0.7121 | 873.71
333.15 K, x1 = 0.7741 | 863.94
333.15 K, x1 = 0.8351 | 854.42
333.15 K, x1 = 0.8812 | 847.31
333.15 K, x1 = 0.9487 | 836.99
333.15 K, x1 = 1 | 829.22
343.15 K, x1 = 0.0547 | 977.18
343.15 K, x1 = 0.1241 | 964.43
343.15 K, x1 = 0.1887 | 952.77
343.15 K, x1 = 0.2654 | 939.18
343.15 K, x1 = 0.3214 | 929.42
343.15 K, x1 = 0.3985 | 916.19
343.15 K, x1 = 0.4658 | 904.84
343.15 K, x1 = 0.5214 | 895.6
343.15 K, x1 = 0.5985 | 882.97
343.15 K, x1 = 0.6541 | 874
343.15 K, x1 = 0.7014 | 866.44
343.15 K, x1 = 0.7654 | 856.33
343.15 K, x1 = 0.8354 | 845.41
343.15 K, x1 = 0.8924 | 836.63
343.15 K, x1 = 0.9469 | 828.32
343.15 K, x1 = 1 | 820.29
353.15 K, x1 = 0.0544 | 968.44
353.15 K, x1 = 0.1214 | 956.1
353.15 K, x1 = 0.1958 | 942.64
353.15 K, x1 = 0.2562 | 931.9
353.15 K, x1 = 0.3214 | 920.5
353.15 K, x1 = 0.3985 | 907.25
353.15 K, x1 = 0.4515 | 898.28
353.15 K, x1 = 0.5114 | 888.28
353.15 K, x1 = 0.5941 | 874.69
353.15 K, x1 = 0.6621 | 863.71
353.15 K, x1 = 0.7214 | 854.26
353.15 K, x1 = 0.7852 | 844.22
353.15 K, x1 = 0.8471 | 834.59
353.15 K, x1 = 0.8915 | 827.76
353.15 K, x1 = 0.9565 | 817.85
353.15 K, x1 = 1 | 811.29

Cc1ccc(C)cc1 [1,4-dimethylbenzene] + CN1CCCC1=O
Conditions | mass density [kg/m3]
293.15 K, x1 = 0.0511 | 1023.02
293.15 K, x1 = 0.1204 | 1010.11
293.15 K, x1 = 0.1985 | 995.8
293.15 K, x1 = 0.2451 | 987.37
293.15 K, x1 = 0.2987 | 977.77
293.15 K, x1 = 0.3458 | 969.44
293.15 K, x1 = 0.4012 | 959.72
293.15 K, x1 = 0.4781 | 946.42
293.15 K, x1 = 0.5314 | 937.3
293.15 K, x1 = 0.5984 | 925.99
293.15 K, x1 = 0.6558 | 916.4
293.15 K, x1 = 0.7154 | 906.57
293.15 K, x1 = 0.7841 | 895.34
293.15 K, x1 = 0.8512 | 884.52
293.15 K, x1 = 0.9254 | 872.69
293.15 K, x1 = 1 | 860.95
303.15 K, x1 = 0.0645 | 1011.3
303.15 K, x1 = 0.1151 | 1001.91
303.15 K, x1 = 0.1814 | 989.76
303.15 K, x1 = 0.2654 | 974.62
303.15 K, x1 = 0.3214 | 964.66
303.15 K, x1 = 0.3854 | 953.43
303.15 K, x1 = 0.4515 | 941.97
303.15 K, x1 = 0.5024 | 933.26
303.15 K, x1 = 0.5685 | 922.06
303.15 K, x1 = 0.6214 | 913.21
303.15 K, x1 = 0.6754 | 904.26
303.15 K, x1 = 0.7451 | 892.85
303.15 K, x1 = 0.8114 | 882.12
303.15 K, x1 = 0.8841 | 870.51
303.15 K, x1 = 0.9514 | 859.89
303.15 K, x1 = 1 | 852.3
313.15 K, x1 = 0.0521 | 1004.87
313.15 K, x1 = 0.1142 | 993.77
313.15 K, x1 = 0.1721 | 983.53
313.15 K, x1 = 0.2302 | 973.36
313.15 K, x1 = 0.3065 | 960.16
313.15 K, x1 = 0.3615 | 950.77
313.15 K, x1 = 0.4115 | 942.31
313.15 K, x1 = 0.4841 | 930.18
313.15 K, x1 = 0.5547 | 918.53
313.15 K, x1 = 0.6208 | 907.77
313.15 K, x1 = 0.7055 | 894.15
313.15 K, x1 = 0.7805 | 882.26
313.15 K, x1 = 0.8372 | 873.36
313.15 K, x1 = 0.8947 | 864.42
313.15 K, x1 = 0.9539 | 855.29
323.15 K, x1 = 0.0575 | 994.81
323.15 K, x1 = 0.1247 | 982.32
323.15 K, x1 = 0.2011 | 968.35
323.15 K, x1 = 0.2784 | 954.42
323.15 K, x1 = 0.338 | 943.85
323.15 K, x1 = 0.4015 | 932.73
323.15 K, x1 = 0.4697 | 920.97
323.15 K, x1 = 0.5389 | 909.19
323.15 K, x1 = 0.6003 | 898.9
323.15 K, x1 = 0.6674 | 887.8
323.15 K, x1 = 0.7245 | 878.46
323.15 K, x1 = 0.7806 | 869.38
323.15 K, x1 = 0.8341 | 860.82
323.15 K, x1 = 0.8947 | 851.21
323.15 K, x1 = 0.9481 | 842.83
323.15 K, x1 = 1 | 834.76
333.15 K, x1 = 0.0462 | 987.58
333.15 K, x1 = 0.1025 | 977.11
333.15 K, x1 = 0.1724 | 964.26
333.15 K, x1 = 0.2354 | 952.85
333.15 K, x1 = 0.2951 | 942.18
333.15 K, x1 = 0.3658 | 929.72
333.15 K, x1 = 0.4315 | 918.31
333.15 K, x1 = 0.5007 | 906.49
333.15 K, x1 = 0.5714 | 894.57
333.15 K, x1 = 0.6378 | 883.55
333.15 K, x1 = 0.7047 | 872.6
333.15 K, x1 = 0.7533 | 864.73
333.15 K, x1 = 0.8258 | 853.13
333.15 K, x1 = 0.8846 | 843.83
333.15 K, x1 = 0.9479 | 833.93
333.15 K, x1 = 1 | 825.86
343.15 K, x1 = 0.0675 | 974.69
343.15 K, x1 = 0.1353 | 962.13
343.15 K, x1 = 0.2024 | 949.85
343.15 K, x1 = 0.2715 | 937.41
343.15 K, x1 = 0.3376 | 925.68
343.15 K, x1 = 0.4061 | 913.71
343.15 K, x1 = 0.4719 | 902.38
343.15 K, x1 = 0.5422 | 890.46
343.15 K, x1 = 0.6103 | 879.09
343.15 K, x1 = 0.6749 | 868.44
343.15 K, x1 = 0.7405 | 857.78
343.15 K, x1 = 0.8049 | 847.44
343.15 K, x1 = 0.8674 | 837.54
343.15 K, x1 = 0.9308 | 827.6
343.15 K, x1 = 0.9788 | 820.15
343.15 K, x1 = 1 | 816.87
353.15 K, x1 = 0.0567 | 967.91
353.15 K, x1 = 0.1134 | 957.31
353.15 K, x1 = 0.1826 | 944.57
353.15 K, x1 = 0.2527 | 931.85
353.15 K, x1 = 0.3072 | 922.09
353.15 K, x1 = 0.3857 | 908.27
353.15 K, x1 = 0.4584 | 895.67
353.15 K, x1 = 0.5036 | 887.95
353.15 K, x1 = 0.5757 | 875.79
353.15 K, x1 = 0.6382 | 865.4
353.15 K, x1 = 0.7016 | 855.01
353.15 K, x1 = 0.7613 | 845.35
353.15 K, x1 = 0.8139 | 836.93
353.15 K, x1 = 0.8846 | 825.75
353.15 K, x1 = 0.9378 | 817.44
353.15 K, x1 = 1 | 807.81
